# BigSolDB 2.1
structure (smiles),measurement,setting,value
O=[N+]([O-])c1ccc(Cl)c(Cl)c1,solubility (mole fraction),"in ethanol, 278.15 K",0.02
same,solubility (mole fraction),"in ethanol, 280.65 K",0.0271
same,solubility (mole fraction),"in ethanol, 283.15 K",0.0352
same,solubility (mole fraction),"in ethanol, 285.65 K",0.0444
same,solubility (mole fraction),"in ethanol, 288.15 K",0.0549
same,solubility (mole fraction),"in ethanol, 290.65 K",0.0661
same,solubility (mole fraction),"in ethanol, 293.15 K",0.0769
same,solubility (mole fraction),"in ethanol, 295.65 K",0.0888
same,solubility (mole fraction),"in ethanol, 298.15 K",0.0997
same,solubility (mole fraction),"in ethanol, 300.65 K",0.111
same,solubility (mole fraction),"in ethanol, 303.15 K",0.119
same,solubility (mole fraction),"in methanol, 278.15 K",0.0208
same,solubility (mole fraction),"in methanol, 280.65 K",0.0251
same,solubility (mole fraction),"in methanol, 283.15 K",0.0296
same,solubility (mole fraction),"in methanol, 285.65 K",0.0353
same,solubility (mole fraction),"in methanol, 288.15 K",0.0422
same,solubility (mole fraction),"in methanol, 290.65 K",0.0505
same,solubility (mole fraction),"in methanol, 293.15 K",0.0611
same,solubility (mole fraction),"in methanol, 295.65 K",0.0724
same,solubility (mole fraction),"in methanol, 298.15 K",0.0873
same,solubility (mole fraction),"in methanol, 300.65 K",0.105
same,solubility (mole fraction),"in methanol, 303.15 K",0.125
